Results published in patent publication US9833497B2, “Human originated EGF domain proteins and use of the same” (CHENGDU SOURCEBIO LIMITED-LIABILITY COMPANY, priority 2013, dated 2017).

Experiments:
Type in all cases: cell-based
E. coli DH5α = test: Antibacterial activity: MIC and growth curve against E. coli DH5α in 96-well plate; conditions: minimal inhibitory concentration against E. coli DH5α; 96-well plate, 5×10^5 CFU/mL, 37° C., judged after 8 h
Method in brief: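 MIC taken as lowest protein level with no bacterial growth, tracked by A600 every 30 min during 37 °C, 175 rpm culture. Two-fold protein series 50-12.5 μg/mL final, triplicate wells, against 5×10^5 CFU/mL of LB-washed mid-log cells.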

E. coli BL21 = test: MIC against Gram-negative bacteria: E. coli BL21; conditions: 5×10^5 CFU/mL
Method in brief: (§1)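 Two-fold serial dilutions of each purified human EGF domain protein, three replicate wells per level, were combined with bacteria at a final 5×10^5 CFU/mL in LB. Cultures were shaken at 175 rpm, 37° C. The MIC was taken as the minimum concentration preventing growth.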

Pseudomonas aeruginosa = test: MIC against Gram-negative bacteria: Pseudomonas aeruginosa; conditions: 5×10^5 CFU/mL
Method in brief: as §1

Klebsiella pneumonia = test: MIC against Gram-negative bacteria: Klebsiella pneumonia; conditions: 5×10^5 CFU/mL
Method in brief: as §1

Enterobacter cloacae = test: MIC against Gram-negative bacteria: Enterobacter cloacae; conditions: 5×10^5 CFU/mL
Method in brief: as §1

Aeromonas hydrophila = test: MIC against Gram-negative bacteria: Aeromonas hydrophila; conditions: 5×10^5 CFU/mL
Method in brief: as §1

Citrobacter diversus = test: MIC against Gram-negative bacteria: Citrobacter diversus; conditions: 5×10^5 CFU/mL
Method in brief: as §1

Moraxella catarrhalis = test: MIC against Gram-negative bacteria: Moraxella catarrhalis; conditions: 5×10^5 CFU/mL
Method in brief: as §1

Proteus mirabilis = test: MIC against Gram-negative bacteria: Proteus mirabilis; conditions: 5×10^5 CFU/mL
Method in brief: as §1

Proteus vulgaris = test: MIC against Gram-negative bacteria: Proteus vulgaris; conditions: 5×10^5 CFU/mL
Method in brief: as §1

Serratia marcescens = test: MIC against Gram-negative bacteria: Serratia marcescens; conditions: 5×10^5 CFU/mL
Method in brief: as §1

[1] = E. coli BL21, 96-well plate, 37° C., 10 h
[2] = Pseudomonas aeruginosa, 96-well plate, 37° C., 10 h
[3] = Klebsiella pneumonia, 96-well plate, 37° C., 10 h
[4] = Enterobacter cloacae, 96-well plate, 37° C., 10 h
[5] = Aeromonas hydrophila, 96-well plate, 37° C., 10 h
[6] = Citrobacter diversus, 96-well plate, 37° C., 10 h
[7] = Moraxella catarrhalis, 96-well plate, 37° C., 10 h
[8] = Proteus mirabilis, 96-well plate, 37° C., 10 h
[9] = Proteus vulgaris, 96-well plate, 37° C., 10 h
[10] = Serratia marcescens, 96-well plate, 37° C., 10 h

| Substance | MIC (E. coli DH5α) [µg/mL] | MIC E. coli BL21 (E. coli BL21; 96-well plate, 37° C., 10 h) [µg/mL] | MIC P. aeruginosa (Pseudomonas aeruginosa; 96-well plate, 37° C., 10 h) [µg/mL] | MIC K. pneumonia (Klebsiella pneumonia; 96-well plate, 37° C., 10 h) [µg/mL] | MIC E. cloacae (Enterobacter cloacae; 96-well plate, 37° C., 10 h) [µg/mL] | MIC A. hydrophila (Aeromonas hydrophila; 96-well plate, 37° C., 10 h) [µg/mL] | MIC C. diversus (Citrobacter diversus; 96-well plate, 37° C., 10 h) [µg/mL] | MIC M. catarrhalis (Moraxella catarrhalis; 96-well plate, 37° C., 10 h) [µg/mL] | MIC P. mirabilis (Proteus mirabilis; 96-well plate, 37° C., 10 h) [µg/mL] | MIC P. vulgaris (Proteus vulgaris; 96-well plate, 37° C., 10 h) [µg/mL] | MIC S. marcescens (Serratia marcescens; 96-well plate, 37° C., 10 h) [µg/mL] | MIC against E. coli BL21 (E. coli BL21; [1]) [µg/mL] | MIC against P. aeruginosa (Pseudomonas aeruginosa; [2]) [µg/mL] | MIC against K. pneumonia (Klebsiella pneumonia; [3]) [µg/mL] | MIC against E. cloacae (Enterobacter cloacae; [4]) [µg/mL] | MIC against A. hydrophila (Aeromonas hydrophila; [5]) [µg/mL] | MIC against C. diversus (Citrobacter diversus; [6]) [µg/mL] | MIC against M. catarrhalis (Moraxella catarrhalis; [7]) [µg/mL] | MIC against P. mirabilis (Proteus mirabilis; [8]) [µg/mL] | MIC against P. vulgaris (Proteus vulgaris; [9]) [µg/mL] | other results |
| --- | --- | --- | --- | --- | --- | --- | --- | --- | --- | --- | --- | --- | --- | --- | --- | --- | --- | --- | --- | --- | --- |
| PRT674 (DVDECQDPAACRPGRCVNLPGSYRCECRPPWVPGPSGRDCQ; listed as Homo sapiens) | 12.5 | 25 | 50 | 25 | 12.5 | 50 | 25 | 25 | 12.5 | 50 | 25 |  |  |  |  |  |  |  |  |  |  |
| PRT1378 (AIQTCPGDCRGRGECHDGSCVCKDGYAGEDCG; listed as Homo sapiens) | 50 |  |  |  |  |  |  |  |  |  |  |  |  |  |  |  |  |  |  |  | MIC against E. coli BL21 (E. coli BL21; E. coli BL21, 10 h cultivation at 37° C.): 25 µg/mL; MIC against P. aeruginosa (Pseudomonas aeruginosa; Pseudomonas aeruginosa, 10 h cultivation at 37° C.): 12.5 µg/mL; MIC against K. pneumonia (Klebsiella pneumonia; Klebsiella pneumonia, 10 h cultivation at 37° C.): 25 µg/mL; MIC against E. cloacae (Enterobacter cloacae; Enterobacter cloacae, 10 h cultivation at 37° C.): 12.5 µg/mL; MIC against A. hydrophila (Aeromonas hydrophila; Aeromonas hydrophila, 10 h cultivation at 37° C.): 12.5 µg/mL; MIC against C. diversus (Citrobacter diversus; Citrobacter diversus, 10 h cultivation at 37° C.): 25 µg/mL; MIC against M. catarrhalis (Moraxella catarrhalis; Moraxella catarrhalis, 10 h cultivation at 37° C.): 12.5 µg/mL; MIC against P. mirabilis (Proteus mirabilis; Proteus mirabilis, 10 h cultivation at 37° C.): 25 µg/mL; MIC against P. vulgaris (Proteus vulgaris; Proteus vulgaris, 10 h cultivation at 37° C.): 12.5 µg/mL; MIC against S. marcescens (Serratia marcescens; Serratia marcescens, 10 h cultivation at 37° C.): 25 µg/mL |
| PRT1226 (YTASCQDMSCSKQGECLETIGNYTCSCYPGFYGPECE; listed as Homo sapiens) | 25 |  |  |  |  |  |  |  |  |  |  | 50 | 25 | 12.5 | 25 | 25 | 50 | 12.5 | 50 | 12.5 | MIC against S. marcescens (Serratia marcescens; [10]): 25 µg/mL |
| PRT1275 (EGMNCMNKNHGCAHICRETPKGGIACECRPGFELTKNQRDCK; listed as Homo sapiens) | 12.5 |  |  |  |  |  |  |  |  |  |  | 50 | 12.5 | 50 | 12.5 | 50 | 50 | 12.5 | 50 | 25 | MIC against S. marcescens (Serratia marcescens; [10]): 12.5 µg/mL |
| PRT545 (CNCSGPGIQELTDPTCDTDSGQCKCRPNVTGRRCDTCSPGFHGYPRCRP; listed as Homo sapiens) | 12.5 |  |  |  |  |  |  |  |  |  |  |  |  |  |  |  |  |  |  |  | MIC against E. coli BL21 (E. coli BL21; 96-well plate, 37° C., 10 h): 12.5 µg/mL; MIC against P. aeruginosa (Pseudomonas aeruginosa; 96-well plate, 37° C., 10 h): 12.5 µg/mL; MIC against K. pneumonia (Klebsiella pneumonia; 96-well plate, 37° C., 10 h): 25 µg/mL; MIC against E. cloacae (Enterobacter cloacae; 96-well plate, 37° C., 10 h): 12.5 µg/mL; MIC against A. hydrophila (Aeromonas hydrophila; 96-well plate, 37° C., 10 h): 25 µg/mL; MIC against C. diversus (Citrobacter diversus; 96-well plate, 37° C., 10 h): 12.5 µg/mL; MIC against M. catarrhalis (Moraxella catarrhalis; 96-well plate, 37° C., 10 h): 12.5 µg/mL; MIC against P. mirabilis (Proteus mirabilis; 96-well plate, 37° C., 10 h): 12.5 µg/mL; MIC against P. vulgaris (Proteus vulgaris; 96-well plate, 37° C., 10 h): 12.5 µg/mL; MIC against S. marcescens (Serratia marcescens; 96-well plate, 37° C., 10 h): 50 µg/mL |
| PRT609 (CHCSPVGSLSTQCDSYGRCSCKPGVMGDKCDRCQPGFHSLTEAGCRP; listed as Homo sapiens) | 50 | 25 | 12.5 | 25 | 50 | 25 | 12.5 | 25 | 50 | 25 | 12.5 |  |  |  |  |  |  |  |  |  |  |
